We go through 4 compounds from patent US20090131512A1, “Inhibition of type I in IFN production” (Dynavax Technologies Corp., priority 2007, published 2009).

The test system of one data set is purified human pDC. The data set is described as follows: IFN-α production by TLR-activated purified pDC, ELISA. Format: cell-based. Particulars: for IFN-α production: subunit-specific PI3K inhibitors.
Data set [1] has as its system purified pDC. The data set is described as follows: IL-6 and TNF-α production by TLR-activated pDC, ELISA and real-time PCR. The class given is cell-based, human. Particulars: CpG-A or CpG-B 0.5 μM; 16 hr; ELISA. Background: An ELISA detects its analyte on a solid surface through an enzyme-linked reagent.
For data set [2], the system named is purified pDC. The data set is described as follows: pDC viability, flow cytometry based LIVE/DEAD assay. The class given is cell-based, human. The note with it: CpG-C 1 μM plus various concentrations of LY; 20 h; listed as LY. As for the experimental part:
Purified pDC were stimulated with CpG-C ISS (1 μM) either alone or in combination with various concentration of PI3K inhibitor LY. After 20 h, viability was assessed using a flow cytometry based viability assay (LIVE/DEAD Viability/Cytotoxicity Kit from Molecular Probe). Average of […] independent donors is shown.

The subject of a further data set is NF-kB p65 (pS529). The data set is described as follows: NF-kB p65 phosphorylation in pDC, flow cytometry. The class given is cell-based, human. The note with it: CpG-C 1 μM; LY 1 or 5 μM, NF-kB inhibitor 0.5 μM; 90 min. The procedure: Accordingly, purified PDC were cultured with CpG-C ISS (1 μM) with or without PI3K inhibitor LY (1 μM or 5 μM) or NF-kB inhibitor (0.5 μM) for 90 min and analyzed by NF-kB flow cytometry. As described above, negatively purified pDC were stimulated with CpG-C and cells were immediately fixed with 4% of paraformaldehyde for 15 min a 37 C. Cells were then washed, permeabilized with PermBuffer III (BD bioscience) for 30 minutes on ice and stained with either Alexa-647 anti-human NF-kB p65 (pS529) for 30 min and then analyzed by flow cytometry.
(In flow cytometry, cells or beads pass a laser one at a time.)

“Also recorded” adds a separate entry of the source. Where only a bound is given, the exact number is not on record here.

Take `O=C1NC(=O)/C(=C/c2ccc3c(c2)OC(F)(F)O3)S1` [AS604850]: the “concentration at which an effect on IFN-α production is observed” value in the data set on purified human pDC (CpG-C 1 μM, 16 hr, specificity for gamma subunit lost) is greater than 20 µM. In addition, the IFN-α production entry in the data set with purified human pDC (CpG-C 1 μM, 16 hr) is “did not observe any effect”.
As to `Cc1ccccc1-n1c(Cn2cnc3c(N)ncnc32)nc2cccc(C)c2c1=O` [IC87114], in the data set with purified human pDC (CpG-C 1 μM, 16 hr), the IFN-α production entry is “inhibited”.
`O=c1cc(N2CCOCC2)oc2c(-c3ccccc3)cccc12` [LY294002]: the “IL-6 production in response to CpG-A and CpG-B” value with purified pDC [1] is listed as “no significant inhibition”. Also, in the data set on purified pDC [2], the pDC viability result is on record as “no negative effect; also recorded: does not affect”. The “inhibition of IFN-α” value with purified human pDC (LY concentrations as low as 0.08 μM, TLR9) was found to be 50%. Further, the “concentration of maximal effect on IFN-α production” value in the data set with purified human pDC (both TLR7 and TLR9 ligands, 16 hr) turned out to be 1.25 µM.
Consider `NC(=O)Nc1sc(-c2ccc(F)cc2)cc1C(N)=O` [NF-kB inhibitor], for which, in the data set with NF-kB p65 (pS529), the NF-kB phosphorylation result is given as “inhibited”.
